Experimental findings from article PMC8048783, “CYP154C5 Regioselectivity in Steroid Hydroxylation Explored by Substrate Modifications and Protein Engineering” (Chembiochem, 2020) are described below.

What is called Kd is a measure of binding affinity in units of concentration.

Assay [1] deals with T1, CYP154C5 (Nocardia farcinica, UniProt Q5YNS8).
T1 construct: gene NFA_53110; full-length, N-terminal His-tag (pET28a(+), NdeI/HindIII), purified from E. coli C43(DE3)
The assay can be described thus: biochemical. It is filed as binding.

Assay [2] deals with T2, CYP154C5 (Nocardia farcinica, UniProt Q5YNS8, Q239A).
T2 construct: gene NFA_53110; full-length, N-terminal His-tag (pET28a(+), NdeI/HindIII), purified from E. coli C43(DE3)
The assay can be described thus: type I spectral shift titration, tight-binding fit. An excerpt:
(§1) type I spectral shift titration, tight-binding fit on CYP154C5

In assay [3] the target is T3, CYP154C5 (Nocardia farcinica, UniProt Q5YNS8, F92A).
T3 construct: gene NFA_53110; full-length, N-terminal His-tag (pET28a(+), NdeI/HindIII), purified from E. coli C43(DE3)
The assay can be described thus: type I spectral shift titration, tight-binding fit.
From the text: as §1

Assay [4] addresses T4, CYP154C5 (Nocardia farcinica, UniProt Q5YNS8, M84A).
T4 construct: gene NFA_53110; full-length, N-terminal His-tag (pET28a(+), NdeI/HindIII), purified from E. coli C43(DE3)
The assay can be described thus: type I spectral shift titration, tight-binding fit.
From the text: as §1

For assay [5], the target named is T5, CYP154C5 (Nocardia farcinica, UniProt Q5YNS8, Q398A).
T5 construct: gene NFA_53110; full-length, N-terminal His-tag (pET28a(+), NdeI/HindIII), purified from E. coli C43(DE3)
The assay can be described thus: type I spectral shift titration, tight-binding fit.
From the text: as §1

A value given as a limit tells only on which side of the number the result lay.

T1 sequence (Q5YNS8 entry or part of it): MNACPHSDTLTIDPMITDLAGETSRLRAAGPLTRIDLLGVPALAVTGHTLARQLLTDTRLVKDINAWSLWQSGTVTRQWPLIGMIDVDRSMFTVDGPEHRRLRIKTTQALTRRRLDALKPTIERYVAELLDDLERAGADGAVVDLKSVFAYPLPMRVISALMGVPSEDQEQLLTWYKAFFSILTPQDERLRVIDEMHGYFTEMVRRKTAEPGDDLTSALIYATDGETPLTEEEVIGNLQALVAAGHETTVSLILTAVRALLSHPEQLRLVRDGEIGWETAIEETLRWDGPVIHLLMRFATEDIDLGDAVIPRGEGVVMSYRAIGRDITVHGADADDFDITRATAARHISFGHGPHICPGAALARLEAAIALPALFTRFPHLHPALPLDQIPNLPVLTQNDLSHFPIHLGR
T3 sequence (Q5YNS8 whole entry F92A): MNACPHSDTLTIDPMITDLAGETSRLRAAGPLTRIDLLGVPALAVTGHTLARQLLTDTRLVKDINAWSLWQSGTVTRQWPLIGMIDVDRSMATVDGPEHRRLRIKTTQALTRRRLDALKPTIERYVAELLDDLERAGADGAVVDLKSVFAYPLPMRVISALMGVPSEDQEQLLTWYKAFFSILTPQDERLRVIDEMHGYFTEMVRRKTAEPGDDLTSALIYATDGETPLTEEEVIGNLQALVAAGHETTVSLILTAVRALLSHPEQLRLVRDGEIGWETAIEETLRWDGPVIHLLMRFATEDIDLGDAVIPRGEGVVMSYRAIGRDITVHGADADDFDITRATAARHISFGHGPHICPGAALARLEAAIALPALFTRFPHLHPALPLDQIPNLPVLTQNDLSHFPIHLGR
T5 sequence (Q5YNS8 whole entry Q398A): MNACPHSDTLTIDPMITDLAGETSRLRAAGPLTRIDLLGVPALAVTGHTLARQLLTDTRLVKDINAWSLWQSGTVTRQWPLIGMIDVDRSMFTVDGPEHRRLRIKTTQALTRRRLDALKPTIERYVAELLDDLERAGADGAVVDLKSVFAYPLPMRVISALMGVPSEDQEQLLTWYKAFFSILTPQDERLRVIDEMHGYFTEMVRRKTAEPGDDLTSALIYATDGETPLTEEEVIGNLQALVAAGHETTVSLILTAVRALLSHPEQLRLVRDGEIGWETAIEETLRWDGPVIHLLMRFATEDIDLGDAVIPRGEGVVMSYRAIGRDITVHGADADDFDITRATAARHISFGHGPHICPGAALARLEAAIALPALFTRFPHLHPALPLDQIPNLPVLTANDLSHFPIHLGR
T4 sequence (Q5YNS8 whole entry M84A): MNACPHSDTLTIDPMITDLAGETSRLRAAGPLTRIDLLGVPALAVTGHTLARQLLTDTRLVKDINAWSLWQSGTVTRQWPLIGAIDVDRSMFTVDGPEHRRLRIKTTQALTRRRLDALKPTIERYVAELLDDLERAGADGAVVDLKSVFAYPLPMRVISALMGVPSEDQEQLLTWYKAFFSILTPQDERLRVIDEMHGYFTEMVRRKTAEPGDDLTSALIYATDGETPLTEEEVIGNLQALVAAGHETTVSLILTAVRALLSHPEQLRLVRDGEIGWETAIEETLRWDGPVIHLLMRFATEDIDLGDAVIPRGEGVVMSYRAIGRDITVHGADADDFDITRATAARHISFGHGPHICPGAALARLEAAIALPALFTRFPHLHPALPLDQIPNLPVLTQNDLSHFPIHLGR
T2 sequence (Q5YNS8 whole entry Q239A): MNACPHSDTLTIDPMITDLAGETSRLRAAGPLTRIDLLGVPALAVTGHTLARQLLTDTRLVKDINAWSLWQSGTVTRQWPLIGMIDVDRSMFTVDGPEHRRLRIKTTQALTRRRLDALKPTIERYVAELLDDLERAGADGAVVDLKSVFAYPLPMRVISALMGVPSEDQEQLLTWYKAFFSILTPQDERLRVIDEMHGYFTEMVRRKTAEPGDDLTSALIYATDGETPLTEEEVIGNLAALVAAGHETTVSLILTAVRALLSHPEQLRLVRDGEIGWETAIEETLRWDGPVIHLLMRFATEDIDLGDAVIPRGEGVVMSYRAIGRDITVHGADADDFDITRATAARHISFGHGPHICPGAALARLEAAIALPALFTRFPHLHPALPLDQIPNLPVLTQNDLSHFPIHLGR

In the case of `C[C@@]12CCC[C@H]1[C@@H]1CC[C@H]3CC(=O)CC[C@]3(C)[C@H]1CC2` [compound 11, 5α‐androstan‐3‐one], at CYP154C5 [1], the dissociation constant (Kd) stood at 20 ± 16 nM.
For the compound `C[C@]12CC[C@H]3[C@@H](CCC4=CC(=O)CC[C@@H]43)[C@@H]1CC[C@@H]2O` [compound 6, nandrolone], the values for the dissociation constant Kd on CYP154C5 [1] and at CYP154C5 [2] were 100 ± 17 nM and 13 ± 6 nM, respectively.
On to `C[C@]12CCC(=O)C=C1CC[C@@H]1[C@@H]2CC[C@]2(C)C(=O)CC[C@@H]12` [compound 4, androstenedione], for which the equilibrium dissociation constant (Kd) on CYP154C5 [1] was 12 ± 7 nM; on CYP154C5 [3], 512 ± 17 nM; on CYP154C5 [4], 3.13 ± 0.234 µM.
Regarding `C[C@]12CCCCC1=CC[C@@H]1[C@@H]2CC[C@]2(C)C(=O)CC[C@@H]12` [compound 10, 3‐deoxydehydroepiandrosterone], the Kd on CYP154C5 [1] turned out to be 94 ± 52 nM.
On to `C[C@]12CC[C@H](O)CC1=CC[C@@H]1[C@@H]2CC[C@]2(C)C(=O)CC[C@@H]12` [compound 2, dehydroepiandrosterone], for which the Kd at CYP154C5 [1] is below 1 nM; at CYP154C5 [3], 1020 ± 32 nM; on CYP154C5 [5], 687 ± 43 nM.
As to `CC(=O)[C@H]1CC[C@H]2[C@@H]3CC=C4C[C@@H](O)CC[C@]4(C)[C@H]3CC[C@]12C` [compound 1, pregnenolone], on CYP154C5 [1], binding was put at a Kd of 62 ± 14 nM.
With `CC(=O)[C@H]1CC[C@H]2[C@@H]3CCC4=CC(=O)CC[C@]4(C)[C@H]3CC[C@]12C` [compound 3, progesterone], the Kd was 15 ± 10 nM on CYP154C5 [1], 209 ± 12 nM at CYP154C5 [3] and 34 ± 21 nM on CYP154C5 [5].
Take `C[C@]12CC[C@H]3[C@@H](CCC4=CC(=O)CC[C@@]43C)[C@@H]1CC[C@@H]2O` [compound 5, testosterone]: the dissociation constant (Kd) at CYP154C5 [1] was 18 ± 10 nM; at CYP154C5 [3], 1480 ± 33 nM; on CYP154C5 [4], 5.71 ± 0.161 µM; on CYP154C5 [5], 747 ± 45 nM.
